Reference: patent publication US12617770B2, “IRAK inhibitor and preparation method therefor and use thereof” (WUHAN CREATERNA SCIENCE AND TECHNOLOGY CO., LTD., priority 2019, dated 2026)

How the values were obtained:
[1] = Plasma protein binding (PPB), equilibrium dialysis, human plasma; format: in vitro ADME; settings: 5 h at 37° C., read-out: Plasma protein binding (Bound %) Human (converted)
Experimental: (§1) The experiment is intended to determine plasma protein binding (PPB) data of the test compounds disclosed herein.
(§2) In the PPB experiment, the final administration matrix contained the test compound or a reference compound with a concentration of 1 μM and DMSO with a content of 0.2%.
(§3) Collecting samples in initial time: 25 μL of the matrix containing the compound was added into a blank 96-well collecting plate, and the plate was stored at −20° C.
(§4) An equilibrated dialysis device was prepared. 100 μL of buffer was added to the receiving side of the equilibrium dialysis plate. Then 100 μL of the administration matrix containing the compound or the reference compound was added into an administration side of the equilibrium dialysis plate. The prepared equilibrium dialysis plate was placed in a 37° C. shaker to be shaken for 5 h at 60 rpm.
(§5) Sample was prepared at the end of cultivation (5 h): Preparing sample in the receiving side: 25 μL of sample from a receiving side was taken out and placed in a 96-well sample collecting plate, and 25 μL of a corresponding matrix (blank plasma) was added for mixing: 200 μL of ACN containing an internal standard was added, shaken for 10 minutes at 600 rpm, and centrifuged at 5594 g for 15 min.
(§6) Preparing sample in the administration side: 25 μL of the sample containing test compound and reference compound from the administration side was taken out and 25 μL of a blank buffer was added for mixing; 200 μL of ACN containing an internal standard was added, shaken for 10 minutes at 600 rpm, and centrifuged at 5594 g for 15 min.
(§7) Preparing sample in initial time: the sample containing test compound and reference compound was re-melted at 37° C. in initial time and then mixed with the corresponding matrix (blank buffer) in the same volume (25 μL); 200 μL of ACN containing an internal standard was added, shaken for 10 minutes at 600 rpm, and centrifuged at 5594 g for 15 min.
(§8) After all the samples were centrifuged, 50 μL of a supernatant was taken and added into 50 μL of ultrapure water for mixing, and the samples were sent to liquid chromatography-mass spectrometry.

[2] = Plasma protein binding (PPB), equilibrium dialysis, mouse plasma; format: in vitro ADME; settings: 5 h at 37° C., read-out: Plasma protein binding (Bound %) Mouse (converted)
Experimental: as §1, §2, §3, §4, §5, §6, §7, §8

CYP1A2 = target: T1, CYP1A2 (Homo sapiens, UniProt P05177); assay: CYP450 inhibition in human liver microsomes, CYP1A2; format: in vitro ADME; settings: pooled (mixed) human liver microsomes, probe phenacetin
T1 construct: co-incubated at 7 concentrations with human liver microsomes and five probe substrates; tissue Corning (USA); host or cells: mixed (pooled) human liver microsomes
T1 sequence (P05177 1-516): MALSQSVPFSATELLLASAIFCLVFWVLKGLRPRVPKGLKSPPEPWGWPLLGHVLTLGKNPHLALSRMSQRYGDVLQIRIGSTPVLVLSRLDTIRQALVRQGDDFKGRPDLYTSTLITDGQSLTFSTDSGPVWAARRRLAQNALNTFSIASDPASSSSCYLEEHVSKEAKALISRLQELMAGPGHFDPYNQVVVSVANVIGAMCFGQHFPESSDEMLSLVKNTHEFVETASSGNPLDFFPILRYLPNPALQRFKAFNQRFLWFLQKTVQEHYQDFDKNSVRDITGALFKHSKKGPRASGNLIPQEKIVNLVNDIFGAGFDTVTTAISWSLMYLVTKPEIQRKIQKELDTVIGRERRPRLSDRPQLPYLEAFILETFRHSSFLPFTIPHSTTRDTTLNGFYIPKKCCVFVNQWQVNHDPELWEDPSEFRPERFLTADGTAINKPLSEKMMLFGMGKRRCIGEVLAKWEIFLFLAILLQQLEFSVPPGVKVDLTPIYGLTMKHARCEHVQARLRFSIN
Experimental: (§9) This study was intended to investigate the inhibitory effect of the test compounds on 5 major enzymes in human P450 superfamily, CYP1A2, 2C9, 2C19, 2D6 and 3A4-M. The mixed human liver microsomes used in this assay were purchased from Corning (USA). The test compound (compound 14) was co-incubated at 7 concentrations with human liver microsomes and five probe substrates (phenacetin for CYP1a2, diclofenac for CYP2C9, mephenytoin for CYP2C19, dextromethorphan for CYP2D6, midazolam for CYP3A4-M, mixed). The reaction was initiated by adding coenzyme NADPH, and terminated by adding acetonitrile containing internal standard. After the proteins were precipitated, the supernatant was centrifuged. The characteristic metabolites in the supernatant (acetaminophen for CYP1A2, 4-hydroxydiclofenac for CYP2C9, 4-hydroxymephenytoin for CYP2C19, dextrorphan for CYP2D6, 1-hydroxymidazolam for CYP3A4-M) were analyzed by LC-MS/MS. The influence of the test compounds on production of the characteristic metabolites was finally analyzed on the basis of the data obtained. A selective inhibitor (ketoconazole for CYP3A4-M) may be used as positive control. All samples were tested in duplicate.

CYP2D6 = target: T2, CYP2D6 (Homo sapiens, UniProt P10635); assay: CYP450 inhibition in human liver microsomes, CYP2D6; format: in vitro ADME; settings: pooled (mixed) human liver microsomes, probe dextromethorphan; human liver microsomes, dextromethorphan; read-out: CYP2D6 IC50
T2 construct: co-incubated at 7 concentrations with human liver microsomes and five probe substrates; tissue Corning (USA); host or cells: mixed (pooled) human liver microsomes
Experimental: as §9

[3] = Pharmacokinetic study, single oral gavage dosing; format: in vivo; settings: mouse, 40 mg/kg, 40 mpk, 15% solutol HS15 + 85% PBS, ICR mice, plasma; for AUC(0-t): read-out: Area under curve AUC0-t; for AUC(0-inf): read-out: Area under curve AUC0-∞; for MRT: read-out: Average retention time MRT; for half-life: read-out: Half life t1/2 (converted); for Cmax: read-out: Peak concentration Cmax; for Tmax: read-out: Time to peak tmax
CYP2C9 = target: T3, CYP2C9 (Homo sapiens, UniProt P11712); assay: CYP450 inhibition in human liver microsomes, CYP2C9; format: in vitro ADME; settings: pooled (mixed) human liver microsomes, probe diclofenac
T3 construct: co-incubated at 7 concentrations with human liver microsomes and five probe substrates; tissue Corning (USA); host or cells: mixed (pooled) human liver microsomes
Experimental: as §9

T2 sequence (P10635 whole entry): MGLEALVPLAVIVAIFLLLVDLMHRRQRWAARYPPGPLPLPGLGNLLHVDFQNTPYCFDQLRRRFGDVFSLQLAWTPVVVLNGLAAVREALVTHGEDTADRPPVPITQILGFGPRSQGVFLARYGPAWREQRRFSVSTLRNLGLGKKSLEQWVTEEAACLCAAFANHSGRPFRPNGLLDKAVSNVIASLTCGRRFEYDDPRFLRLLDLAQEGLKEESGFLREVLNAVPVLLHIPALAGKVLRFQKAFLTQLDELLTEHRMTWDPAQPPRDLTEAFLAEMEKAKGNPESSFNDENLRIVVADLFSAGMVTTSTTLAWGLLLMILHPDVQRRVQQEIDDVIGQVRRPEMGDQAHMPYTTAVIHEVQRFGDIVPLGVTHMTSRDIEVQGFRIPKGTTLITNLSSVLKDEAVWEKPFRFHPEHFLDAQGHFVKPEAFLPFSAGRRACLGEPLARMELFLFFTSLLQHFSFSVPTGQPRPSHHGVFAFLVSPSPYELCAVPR
T3 sequence (P11712 whole entry): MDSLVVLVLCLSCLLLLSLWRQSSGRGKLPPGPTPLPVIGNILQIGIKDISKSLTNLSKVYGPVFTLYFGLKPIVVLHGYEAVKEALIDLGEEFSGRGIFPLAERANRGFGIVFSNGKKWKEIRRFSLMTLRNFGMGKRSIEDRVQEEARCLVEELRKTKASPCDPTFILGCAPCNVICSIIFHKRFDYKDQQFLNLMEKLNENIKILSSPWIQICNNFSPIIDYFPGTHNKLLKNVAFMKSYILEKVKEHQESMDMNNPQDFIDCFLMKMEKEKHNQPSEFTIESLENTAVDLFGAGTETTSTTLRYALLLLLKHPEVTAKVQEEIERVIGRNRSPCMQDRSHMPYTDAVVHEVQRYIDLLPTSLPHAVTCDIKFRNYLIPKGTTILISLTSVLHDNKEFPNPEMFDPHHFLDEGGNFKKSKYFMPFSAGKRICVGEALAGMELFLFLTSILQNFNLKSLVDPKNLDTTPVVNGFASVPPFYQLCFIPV

fraction unbound at 5 h, 1 μM [1]	fraction unbound at 5 h, 1 μM [2]	IC50 (CYP1A2) [µM]	IC50 (CYP2D6) [µM]	AUC(0-t) [3] [µg·h/mL]	AUC(0-inf) [3] [µg·h/mL]	MRT [3] [h]	half-life [3] [h]	Cmax [3] [ng/mL]	Tmax [3] [h]	IC50 (CYP2C9) [µM]	Compound
0.19	0.201	> 30	> 30	294	375	15.3	11.5	24200	4	> 30	COc1cc2nn([C@H]3CC[C@](C)(O)CC3)cc2cc1NC(=O)c1cccc(C)[n+]1[O-] [Compound 001, 2-((2-((1r,4r)-4-hydroxy-4-methylcyclohexyl)-6-methoxy-2H-indazol-5-yl)carbamoyl)-6-methylpyridine 1-oxide]
0.183	0.162	> 30	> 30	207	207	6.75	3.62	25900	4	> 30	COc1cc2nn(CCC(C)(C)O)cc2cc1NC(=O)c1cccc(C)[n+]1[O-] [Compound 163, 2-((2-(3-hydroxy-3-methylbutyl)-6-methoxy-2H-indazol-5-yl)carbamoyl)-6-methylpyridine 1-oxide]
